Assay results published in patent publication US8993606B2, “Oral formulations for treating metal overload” (FerroKin BioSciences, Inc., priority 2011, dated 2015).

What was measured:
[1] = Example 5: single-dose study in iron-overloaded human subjects (PK); type: in vivo; settings: for Tmax / AUC(0-inf) / AUC(0-t) / Cmax / half-life: human, plasma
Experimental: Example 5 was a single-dose, escalating study in iron-overloaded subjects. Men between the ages of 18-50 years qualified to participate if they were able to voluntarily give consent and had transfusional overload requiring treatment with an iron chelator and were willing to discontinue their chelation for a period of at least 7 days prior to screening and during the study. Eligible subjects had serum ferritin levels>300 ng/mL and ≦5000 ng/mL. Subjects had blood pressure in the normal range, ECG within normal limits and tested negative for drugs of abuse. Subjects were also HIV and Hepatitis B negative and agreed to use an approved method of contraception during the study.
The objectives of this study were to assess the safety, tolerability, and pharmacokinetics of ascending single doses of Compound 1. Additionally, dose proportionality and pharmacodynamics of Compound 1 were assessed. Four doses of Compound 1 (6, 10, 16, and 32 mg/kg), in capsule form, were evaluated in this study. Each dose level was tested in a single subject, with appropriate evaluation of safety done prior to escalating the dose. Following screening, the first subject was dosed and then confined to the clinical research unit for 24 hours to conduct safety and pharmacokinetic assessments. The subject was released from the clinic on Day 2 and returned daily for follow-up visits for 5 days post-dosing. This process was followed for each dose level.
All 4 subjects who received a dose of Compound 1 were included in the analysis of pharmacokinetic parameters.

[2] = Example 8: single-dose study in healthy human subjects 3-16 mg/kg (PK); type: in vivo; settings: for half-life / AUC(0-t) / AUC(0-inf) / Cmax / Tmax: male, human, plasma; for AUC(0-t) / Cmax / Tmax: mean of 3 subjects
From the text: Example 8 was a double-blind, placebo-controlled single dose-escalating study in healthy subjects. Men between the ages of 18-45 years qualified to participate if they were able to voluntarily give consent and had no clinically significant abnormal findings at the screening evaluation. Specifically, subjects had blood pressure in the normal range, ECG and clinical laboratory values within normal limits, tested negative for drugs of abuse and had not recently donated blood. Subjects were also HIV, Hepatitis B, and Hepatitis C negative and agreed to use an approved method of contraception during the study.
The objectives of this study were to assess the safety, tolerability, and pharmacokinetics of ascending single doses of Compound 1 compared to placebo. Additionally, dose proportionality and pharmacodynamics of Compound 1 were assessed. Four doses of Compound 1 (3, 6, 10, and 16 mg/kg), in capsule form, were evaluated in this study. Following screening, subjects in a given cohort were randomly assigned to receive either Compound 1 or placebo. In the first cohort, 3 subjects received […] and 2 received placebo; in each of the subsequent remaining 3 cohorts, 3 subjects received the next higher dose of Compound 1 and 1 received placebo. Subjects were dosed and then confined to the clinical research unit for 24 hours to conduct safety and pharmacokinetic assessments. Subjects were released from the clinic on Day 2 and returned daily for follow-up visits for 5 days post-dosing.
All 12 subjects who received a dose of Compound 1 were included in the analysis of pharmacokinetic parameters. All 17 subjects enrolled in the study were included in the analysis of pharmacodynamics.
Blood samples for determination of total (free and iron bound complex) plasma Compound 1 concentrations were collected on Day 1 at pre-dose (within 60 minutes prior to dose administration) and then at 0.25, 0.5, 0.75, 1, 1.5, 2, 2.5, 3, 3.5, 4, 8, 12 hours post-dose; on Day 2 at 24 and 36 hours post-dose; on Day 3 at 48 hours post-dose, on Day 4 at 72 hours post-dose; and on Day 5 at 96 hours post-dose.
Total urine collection for pharmacokinetic and pharmacodynamic assessment was performed at pre-dose and then for intervals 0-4, 4-8, 8-12, 12-24 hours post-dose. Collection of total urine for 24 hours post-dose for pharmacokinetic analysis was complete for all subjects who received a dose of Compound 1. It was noted, however, that Subject R105 (placebo) voided into the toilet once (at 3 minutes post-dose) during the 0-4 hour post-dose urine collection interval.

[3] = single oral dose 6 mg/kg, subject 1
[4] = single oral dose 10 mg/kg, subject 2
[5] = single oral dose 16 mg/kg, subject 3
[6] = single oral dose 32 mg/kg, subject 4
[7] = single oral dose 10 mg/kg, mean
[8] = single oral dose 16 mg/kg, mean

For `COCCOCCOCCOc1cccc(C2=N[C@@](C)(C(=O)O)CS2)c1O` [Compound 1, (S)-4,5-Dihydro-2-[2-hydroxy-3-(3,6,9-trioxadecyloxy)phenyl]-4-methyl-4-thiazolecarboxylate magnesium hydroxide], the “total fraction of oral dose excreted in urine over 24 hour, average” value ([1]; 4 dose levels) was 39%, the “dose proportionality of Cmax and AUC” value ([1]; 6-32 mg/kg dose range) was “dose-proportional” and the “plasma concentrations at 24 hours post-dose” value ([1]; all subjects, 6, 10, 16 and 32 mg/kg) was < 1 % of Cmax. The Tmax ([1]; single oral dose 6 mg/kg (360 mg), subject 1, read-out: tmax) was 1 h, the AUC(0-inf) [1, 3] was 46300 ng·h/mL and the AUC(0-t) [1, 3] was 45900 ng·h/mL. For the same molecule, the Cmax [1, 3] was 14900 ng/mL, the Tmax ([1]; single oral dose 10 mg/kg (583 mg), subject 2, read-out: tmax) was 0.77 h and the AUC(0-inf) [1, 4] was 69700 ng·h/mL. The AUC(0-t) [1, 4] was 69200 ng·h/mL, the Cmax [1, 4] was 35400 ng/mL and the Tmax ([1]; single oral dose 16 mg/kg (1288 mg), subject 3, read-out: tmax) was 1 h. It also gave an AUC(0-inf) [1, 5] of 122000 ng·h/mL, an AUC(0-t) [1, 5] of 122000 ng·h/mL and a Cmax [1, 5] of 38500 ng/mL. For the same molecule, the Tmax ([1]; single oral dose 32 mg/kg (2214.4 mg), subject 4, read-out: tmax) was 1 h, the AUC(0-inf) [1, 6] was 159000 ng·h/mL and the AUC(0-t) [1, 6] was 157000 ng·h/mL. It also gave a Cmax [1, 6] of 47600 ng/mL, a half-life ([1]; male, oral, 6-32 mg/kg single dose, read-out: terminal half-life, range) of 16 to 30 h and a half-life ([1]; male, oral, averaged across all dose levels, read-out: mean t1/2 (converted)) of 23.7 h. The Tmax ([1]; male, oral, averaged across all dose levels, read-out: mean tmax) was 0.925 h, the “total fraction of oral dose excreted in urine over 24 hour” value ([1]; range across the 4 dose levels) was 28-51% and the CL/F [1, 3] was 7.9 L/h. For the same molecule, the CL/F [1, 4] was 8.4 L/h, the CL/F [1, 5] was 10.6 L/h and the CL/F [1, 6] was 14.1 L/h. The “dose dependence of mean Cmax and AUC” value ([2]; 3-16 mg/kg) was “linear across the dose range”, the “total fraction of administered drug excreted in urine over 24 hour, range” value ([2]; across all 4 dose levels) was 19-83% and the “total fraction of administered drug excreted in urine over 24 hour, average” value ([2]; all 4 dose levels, standard deviation 18%) was 59%. For the same molecule, the half-life ([2]; oral, 11 of 12 subjects, 3-16 mg/kg, read-out: median t1/2 (converted)) was 7.32 h, the half-life ([2]; oral, 11 of 12 subjects, 3-16 mg/kg, read-out: t1/2, range) was 3.77 to 35.2 h and the half-life ([2]; oral, 11 of 12 subjects, 3-16 mg/kg, standard deviation 10.1, read-out: mean t1/2 (converted)) was 12.8 h. It also gave an AUC(0-t) ([2]; po, 3 mg/kg, single oral dose 3 mg/kg, read-out: AUC0-24) of 12100 ng·h/mL, an AUC(0-t) ([2]; po, 3 mg/kg, single oral dose 3 mg/kg, read-out: AUC0-t) of 12100 ng·h/mL and a half-life ([2]; po, 3 mg/kg, single oral dose 3 mg/kg, mean, read-out: t1/2 (converted)) of 4.4 h. It also gave an AUC(0-t) ([2]; po, 6 mg/kg, single oral dose 6 mg/kg, read-out: AUC0-24) of 24700 ng·h/mL, an AUC(0-t) ([2]; po, 6 mg/kg, single oral dose 6 mg/kg, read-out: AUC0-t) of 25300 ng·h/mL and a half-life ([2]; po, 6 mg/kg, single oral dose 6 mg/kg, mean, read-out: t1/2 (converted)) of 15.4 h. It also gave an AUC(0-t) ([2]; po, 10 mg/kg, single oral dose 10 mg/kg, read-out: AUC0-24) of 42700 ng·h/mL, an AUC(0-t) ([2]; po, 10 mg/kg, single oral dose 10 mg/kg, read-out: AUC0-t) of 43400 ng·h/mL and a half-life ([2]; po, 10 mg/kg, single oral dose 10 mg/kg, mean, read-out: t1/2 (converted)) of 16.1 h. For the same molecule, the AUC(0-t) ([2]; po, 16 mg/kg, single oral dose 16 mg/kg, read-out: AUC0-24) was 74600 ng·h/mL, the AUC(0-t) ([2]; po, 16 mg/kg, single oral dose 16 mg/kg, read-out: AUC0-t) was 75400 ng·h/mL and the half-life ([2]; po, 16 mg/kg, single oral dose 16 mg/kg, mean, read-out: t1/2 (converted)) was 16.1 h. It also gave an AUC(0-inf) ([2]; single oral dose 3 mg/kg, mean) of 12200 ng·h/mL, a Cmax ([2]; single oral dose 3 mg/kg) of 5410 ng/mL and a Tmax ([2]; single oral dose 3 mg/kg) of 1.33 h. The AUC(0-inf) ([2]; single oral dose 6 mg/kg, mean) was 26600 ng·h/mL, the Cmax ([2]; single oral dose 6 mg/kg) was 12200 ng/mL and the Tmax ([2]; single oral dose 6 mg/kg) was 0.92 h. The AUC(0-inf) [2, 7] was 43600 ng·h/mL, the Cmax ([2]; single oral dose 10 mg/kg) was 16600 ng/mL and the Tmax ([2]; single oral dose 10 mg/kg) was 1.17 h. It also gave an AUC(0-inf) [2, 8] of 75600 ng·h/mL, a Cmax ([2]; single oral dose 16 mg/kg) of 34800 ng/mL and a Tmax ([2]; single oral dose 16 mg/kg) of 1 h. For the same molecule, the kel ([2]; single oral dose 3 mg/kg, mean) was 0.1595 h⁻¹, the kel ([2]; single oral dose 6 mg/kg, mean) was 0.0469 h⁻¹ and the kel [2, 7] was 0.0562 h⁻¹. The kel [2, 8] was 0.0779 h⁻¹.
